The values below come from patent US7323596B2, “Antimicrobial agents” (De Novo Pharmaceuticals Ltd., priority 2000, dated 2008).

Molecules are shown by their SMILES. pIC50: −log10 of the molar value. ≈ marks a conversion by molar mass, not a printed value.

A word on the pIC50: it is the IC50 on a negative log10 scale, so that one unit is a factor of ten. Low readings indicate a high IC50, high ones a low IC50.

For assay [1], the target named is E coli PDF (Ni) (Escherichia coli, UniProt P0A6K3). Briefly: inhibition of the PDF E. coli (Ni) enzyme. The format is biochemical. As to conditions: Ni form of E. coli PDF enzyme. On the procedure:
Examples 2-5 were prepared in a manner analogous to example 1. Also shown is there inhibition of the PDF E. coli(Ni) enzyme.

The test system of assay [2] is Haemophilia influenza. Briefly: MIC by standard agar plate dilution method. It counts as cell-based. The method, then: The susceptibilities of strains of bacteria to the compound of Example 1 were determined by a standard agar plate dilution method following recommendations in British Society for Antimicrobial Chemotherapy Working Party. 1991, “A guide to sensitivity testing British Society for Antimicrobial Chemotherapy, London, United Kingdom”. Briefly, Iso-Sensitest agar (pH 7.2: Oxoid, United Kingdom) is employed, supplemented with 5% horse blood (Oxoid) and 20 μg of NAD (Sigma) per ml are added to support growth of fastidious bacteria. The inoculum used is approximately 10^4 colony forming units of each isolate contained in a volume of 1 μl. Plates are incubated 18 to 24 hr in air, or for fastidious bacteria an atmosphere enriched with 4-6% carbon dioxide at 35° C. The MIC is determined as the lowest concentration of an Antimicrobial tested that inhibited growth of the inoculum, disregarding a single persisting colony or faint haze caused by the inoculation.

Chain of E coli PDF (Ni) (P0A6K3 whole entry): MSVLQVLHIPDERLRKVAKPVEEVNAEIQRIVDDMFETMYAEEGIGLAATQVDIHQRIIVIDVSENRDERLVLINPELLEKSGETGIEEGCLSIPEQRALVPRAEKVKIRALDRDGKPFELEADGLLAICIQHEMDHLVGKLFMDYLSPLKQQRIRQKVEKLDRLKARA

For `CCCC[C@H](CN(O)C=O)NC(=O)c1cn(CC)c2cc3c(cc2c1=O)OCO3` [Example 2, 5-Ethyl-8-oxo-5,8-dihydro-[1,3]dioxolo[4,5]quinoline-7-carboxylic acid {1R-[(formyl-hydroxy-amino)-methyl]-pentyl}amide], in assay [1], the negative logarithm of the IC50 (pIC50) is 7.52.
In the case of `CCCC[C@H](CN(O)C=O)NC(=O)c1coc2ccccc2c1=O` [Example 5, 4-Oxo-4H-chromene-3-carboxylic acid {1R-[(formyl-hydroxy-amino)-methyl]-pentyl}amide], the negative logarithm of the IC50 (pIC50) in assay [1] is 6.70.
Molecule `CCCC[C@H](CN(O)C=O)NC(=O)c1cn(CC)c2ccc(Cl)cc2c1=O` [Example 4, 6-Chloro-1-ethyl-4-oxo-1,4-dihydro-quinoline-3-carboxylic acid {1R[(formyl-hydroxy-amino)-methyl]-pentyl}-amide] had a negative-log IC50 (pIC50) in assay [1] of 7.70.
In assay [2], `CCCC[C@H](CN(O)C=O)NC(=O)Cc1cccc2ccccc12` [Example 1, N-{1R-[(Formyl-hydroxy-amino)-methyl]-pentyl}2-naphthalen-1-yl-acetamide] came in with an MIC of 0.5 to 2 µg/mL (≈ 1.52 to 6.09 µM).
Regarding `CCCC[C@H](CN(O)C=O)NC(=O)c1cn(C2CCCCC2)c2ccccc2c1=O` [Example 3, 1-Cyclohexyl-4-oxo-1,4-dihydro-quinoline-3-carboxylic acid {1R[(formyl-hydroxy-amino)-methyl]-pentyl}-amide], the pIC50 in assay [1] was 7.22.
